Data from the NIST ThermoML archive (doi:10.1016/j.jct.2018.02.013).
± gives the expanded uncertainty stated by the source.

Assays:
[1] = molar heat capacity at constant pressure; details: 101.33 kPa, Liquid, Small sample (50 mg) DSC
[2] = 101.33 kPa, Liquid; for thermal conductivity: transient hot wire; for mass density: Vibrating tube method; for viscosity: Cone and plate viscometry; for electrical conductivity: Direct current cell with electrodes

CCCCCC(=O)[O-].CCCCCCCCCCCCCC[P+](CCCCCC)(CCCCCC)CCCCCC [trihexyl(tetradecyl)phosphonium hexanoate]
Details | electrical conductivity [S/m] | mass density [kg/m3] | molar heat capacity at constant pressure [J/K/mol] | thermal conductivity [W/m/K] | viscosity [mPa·s]
[1], 293.15 K | – | – | 1133.3 ± 70 | – | –
[1], 298.15 K | – | – | 1141.7 ± 70 | – | –
[1], 303.15 K | – | – | 1149.5 ± 71 | – | –
[1], 308.15 K | – | – | 1156.7 ± 71 | – | –
[1], 313.15 K | – | – | 1163.9 ± 72 | – | –
[1], 318.15 K | – | – | 1169.3 ± 72 | – | –
[1], 323.15 K | – | – | 1176.4 ± 72 | – | –
[1], 328.15 K | – | – | 1182.4 ± 73 | – | –
[1], 333.15 K | – | – | 1189 ± 73 | – | –
[1], 338.15 K | – | – | 1196.8 ± 74 | – | –
[1], 343.15 K | – | – | 1204 ± 74 | – | –
[1], 348.15 K | – | – | 1211.2 ± 75 | – | –
[1], 353.15 K | – | – | 1219 ± 75 | – | –
[1], 358.15 K | – | – | 1227.4 ± 75 | – | –
[1], 363.15 K | – | – | 1235.2 ± 76 | – | –
[2], 278.22 K | – | – | – | 0.1591 ± 0.0095 | –
[2], 287.73 K | – | – | – | 0.1574 ± 0.01 | –
[2], 293.15 K | – | 888.5 ± 1.9 | – | – | –
[2], 293.2 K | – | – | – | – | 435.1 ± 32
[2], 298.15 K | – | 885.5 ± 1.9 | – | – | –
[2], 298.2 K | – | – | – | – | 343.1 ± 24
[2], 298.98 K | – | – | – | 0.156 ± 0.0096 | –
[2], 299.6 K | 0.0033 ± 0.00018 | – | – | – | –
[2], 303.15 K | – | 882.3 ± 1.9 | – | – | –
[2], 303.2 K | – | – | – | – | 260.7 ± 18
[2], 303.8 K | 0.00454 ± 0.00021 | – | – | – | –
[2], 307.3 K | – | – | – | 0.1547 ± 0.01 | –
[2], 308.1 K | 0.00563 ± 0.00026 | – | – | – | –
[2], 308.2 K | – | – | – | – | 200 ± 13
[2], 313.15 K | – | 876 ± 1.9 | – | – | –
[2], 313.2 K | – | – | – | – | 155.8 ± 10
[2], 313.9 K | 0.00765 ± 0.00034 | – | – | – | –
[2], 318.15 K | – | – | – | 0.1533 ± 0.01 | –
[2], 318.2 K | – | – | – | – | 123.4 ± 7.9
[2], 318.4 K | 0.00943 ± 0.00041 | – | – | – | –
[2], 323.15 K | – | 869.7 ± 1.9 | – | – | –
[2], 323.2 K | – | – | – | – | 99.18 ± 6.2
[2], 323.6 K | 0.0118 ± 0.00052 | – | – | – | –
[2], 328 K | 0.0144 ± 0.00063 | – | – | – | –
[2], 328.2 K | – | – | – | – | 80.79 ± 5
[2], 329.17 K | – | – | – | 0.151 ± 0.011 | –
[2], 333.15 K | – | 863.6 ± 1.8 | – | – | –
[2], 333.2 K | – | – | – | – | 66.6 ± 4.1
[2], 333.6 K | 0.018 ± 0.00078 | – | – | – | –
[2], 336.96 K | – | – | – | 0.15 ± 0.011 | –
[2], 338.2 K | – | – | – | – | 55.39 ± 3.4
[2], 338.9 K | 0.0223 ± 0.001 | – | – | – | –
[2], 343 K | 0.026 ± 0.0011 | – | – | – | –
[2], 343.15 K | – | 857.5 ± 1.8 | – | – | –
[2], 343.2 K | – | – | – | – | 46.46 ± 2.9
[2], 347.73 K | – | – | – | 0.1497 ± 0.011 | –
[2], 348.2 K | – | – | – | – | 39.52 ± 2.4
[2], 349.3 K | 0.0325 ± 0.0014 | – | – | – | –
[2], 353.15 K | – | 851.5 ± 1.8 | – | – | –
[2], 353.2 K | – | – | – | – | 33.7 ± 2.1
[2], 357.74 K | – | – | – | 0.1476 ± 0.01 | –
[2], 358.2 K | – | – | – | – | 28.97 ± 1.8
[2], 363.15 K | – | 845.4 ± 1.8 | – | – | –
[2], 363.2 K | – | – | – | – | 25.05 ± 1.5
[2], 368.2 K | – | – | – | – | 21.82 ± 1.3

CCCCCCCCCC(=O)[O-].CCCCCCCCCCCCCC[P+](CCCCCC)(CCCCCC)CCCCCC [trihexyltetradecylphosphonium decanoate]
Details | electrical conductivity [S/m] | mass density [kg/m3] | molar heat capacity at constant pressure [J/K/mol] | thermal conductivity [W/m/K] | viscosity [mPa·s]
[1], 293.15 K | – | – | 1181.2 ± 73 | – | –
[1], 298.15 K | – | – | 1191.7 ± 73 | – | –
[1], 303.15 K | – | – | 1199.5 ± 74 | – | –
[1], 308.15 K | – | – | 1209.3 ± 75 | – | –
[1], 313.15 K | – | – | 1217.2 ± 75 | – | –
[1], 318.15 K | – | – | 1221.8 ± 75 | – | –
[1], 323.15 K | – | – | 1230.3 ± 76 | – | –
[1], 328.15 K | – | – | 1238.2 ± 77 | – | –
[1], 333.15 K | – | – | 1246 ± 77 | – | –
[1], 338.15 K | – | – | 1250.6 ± 77 | – | –
[1], 343.15 K | – | – | 1264.4 ± 78 | – | –
[1], 348.15 K | – | – | 1269.6 ± 78 | – | –
[1], 353.15 K | – | – | 1278.8 ± 79 | – | –
[1], 358.15 K | – | – | 1285.3 ± 79 | – | –
[1], 363.15 K | – | – | 1296.5 ± 80 | – | –
[2], 278.09 K | – | – | – | 0.1601 ± 0.0093 | –
[2], 288 K | – | – | – | 0.1591 ± 0.0091 | –
[2], 293.15 K | – | 880.4 ± 1.9 | – | – | –
[2], 293.2 K | – | – | – | – | 546.3 ± 41
[2], 297.79 K | – | – | – | 0.1571 ± 0.0097 | –
[2], 298.15 K | – | 877.3 ± 1.9 | – | – | –
[2], 298.2 K | – | – | – | – | 409.8 ± 30
[2], 298.8 K | 0.00174 ± 9e-05 | – | – | – | –
[2], 303.15 K | – | 874.6 ± 1.9 | – | – | –
[2], 303.2 K | – | – | – | – | 314.5 ± 22
[2], 303.8 K | 0.00239 ± 0.00011 | – | – | – | –
[2], 308 K | 0.00297 ± 0.00013 | – | – | – | –
[2], 308.16 K | – | – | – | 0.1545 ± 0.01 | –
[2], 308.2 K | – | – | – | – | 242.5 ± 17
[2], 313.15 K | – | 868.1 ± 1.8 | – | – | –
[2], 313.2 K | – | – | – | – | 189.8 ± 13
[2], 313.8 K | 0.00395 ± 0.00017 | – | – | – | –
[2], 318.13 K | – | – | – | 0.1542 ± 0.01 | –
[2], 318.2 K | – | – | – | – | 151.3 ± 9.8
[2], 319.6 K | 0.00506 ± 0.00023 | – | – | – | –
[2], 323.15 K | – | 862 ± 1.8 | – | – | –
[2], 323.2 K | 0.00631 ± 0.00028 | – | – | – | 121.8 ± 7.7
[2], 326.82 K | – | – | – | 0.1535 ± 0.0098 | –
[2], 328.2 K | 0.00763 ± 0.00033 | – | – | – | 99.78 ± 6.2
[2], 333.15 K | – | 855.7 ± 1.8 | – | – | –
[2], 333.2 K | – | – | – | – | 82.68 ± 5.1
[2], 333.4 K | 0.00949 ± 0.00041 | – | – | – | –
[2], 338.2 K | – | – | – | – | 68.76 ± 4.2
[2], 338.3 K | 0.0118 ± 0.0005 | – | – | – | –
[2], 338.5 K | – | – | – | 0.1515 ± 0.011 | –
[2], 343.15 K | – | 849.7 ± 1.8 | – | – | –
[2], 343.2 K | – | – | – | – | 58.07 ± 3.6
[2], 343.5 K | 0.0137 ± 0.00058 | – | – | – | –
[2], 347.3 K | – | – | – | 0.1502 ± 0.012 | –
[2], 348.2 K | – | – | – | – | 49.28 ± 3
[2], 349.7 K | 0.0171 ± 0.00072 | – | – | – | –
[2], 353.15 K | – | 843.3 ± 1.8 | – | – | –
[2], 353.2 K | – | – | – | – | 42.21 ± 2.6
[2], 358.2 K | – | – | – | – | 36.41 ± 2.2
[2], 358.21 K | – | – | – | 0.1493 ± 0.011 | –
[2], 363.15 K | – | 837.4 ± 1.8 | – | – | –
[2], 363.2 K | – | – | – | – | 31.71 ± 1.9
[2], 368.2 K | – | – | – | – | 27.59 ± 1.7
